{
  "source": "ChEMBL document CHEMBL1129655",
  "about": "“A comparative molecular field analysis study of N-benzylpiperidines as acetylcholinesterase inhibitors” (J Med Chem, 1996)",
  "target": "T1, Acetylcholinesterase (Mus musculus, UniProt P21836)",
  "T1 sequence (P21836 whole entry)": "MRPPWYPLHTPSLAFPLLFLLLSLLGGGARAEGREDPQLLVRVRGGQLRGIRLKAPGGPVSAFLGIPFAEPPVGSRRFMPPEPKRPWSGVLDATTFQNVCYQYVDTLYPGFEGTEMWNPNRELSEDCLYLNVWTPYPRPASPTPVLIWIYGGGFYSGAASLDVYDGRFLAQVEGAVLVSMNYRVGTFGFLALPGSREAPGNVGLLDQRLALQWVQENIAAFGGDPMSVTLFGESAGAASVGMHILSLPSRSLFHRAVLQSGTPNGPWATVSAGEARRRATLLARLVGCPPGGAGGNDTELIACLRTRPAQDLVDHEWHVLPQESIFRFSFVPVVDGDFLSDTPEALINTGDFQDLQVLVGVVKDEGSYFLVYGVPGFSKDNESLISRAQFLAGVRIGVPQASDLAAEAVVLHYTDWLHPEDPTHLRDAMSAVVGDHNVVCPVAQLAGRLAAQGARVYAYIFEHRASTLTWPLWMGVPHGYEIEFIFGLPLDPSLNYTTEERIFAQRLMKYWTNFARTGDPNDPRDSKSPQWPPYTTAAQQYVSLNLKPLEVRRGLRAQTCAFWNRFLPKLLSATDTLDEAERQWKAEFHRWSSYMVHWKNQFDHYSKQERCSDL",
  "description": "Inhibition against Acetylcholinesterase (AChE)",
  "data": [
    {"molecule": "O=C(NCCC1CCN(CCc2ccccc2)CC1)c1ccccc1", "values": [
      {"measurement": "IC50", "result": 13, "unit": "µM"}
    ]}
  ]
}
